Experimental data reported in patent US20240150377A1, “MODULATORS OF CYSTIC FIBROSIS TRANSMEMBRANE CONDUCTANCE REGULATOR” (VERTEX PHARMACEUTICALS INCORPORATED, priority 2020, published 2024).
One block for each compound: values may come before it.

Biological target: T1, CFTR (Homo sapiens, UniProt P13569, DEL508-508)
T1 construct: endogenous in cells; host or cells: primary human bronchial epithelial cells from CF subjects (F508del/MF-HBE), differentiated at air-liquid interface
Experiment: HBE2 assay: Ussing chamber assay of CFTR-mediated short-circuit currents
Type: cell-based
Conditions: F508del/MF-HBE cells, with 44 nM potentiator, 18-24 hours, 20% human serum; for Emax: read-out: HBE2 Max activity (%)
Method in brief: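 F508del/MF-HBE cultured >14 days at air-liquid interface, mounted in Ussing chambers; transepithelial short-circuit current recorded under voltage clamp (Vhold=0 mV) at 37 °C. CFTR-mediated ISC (μA/cm^2) taken as peak forskolin response relative to steady-state current after inhibition; corrector activity assessed this way.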

T1 sequence (P13569 with tags, fused parts or gaps DEL508-508): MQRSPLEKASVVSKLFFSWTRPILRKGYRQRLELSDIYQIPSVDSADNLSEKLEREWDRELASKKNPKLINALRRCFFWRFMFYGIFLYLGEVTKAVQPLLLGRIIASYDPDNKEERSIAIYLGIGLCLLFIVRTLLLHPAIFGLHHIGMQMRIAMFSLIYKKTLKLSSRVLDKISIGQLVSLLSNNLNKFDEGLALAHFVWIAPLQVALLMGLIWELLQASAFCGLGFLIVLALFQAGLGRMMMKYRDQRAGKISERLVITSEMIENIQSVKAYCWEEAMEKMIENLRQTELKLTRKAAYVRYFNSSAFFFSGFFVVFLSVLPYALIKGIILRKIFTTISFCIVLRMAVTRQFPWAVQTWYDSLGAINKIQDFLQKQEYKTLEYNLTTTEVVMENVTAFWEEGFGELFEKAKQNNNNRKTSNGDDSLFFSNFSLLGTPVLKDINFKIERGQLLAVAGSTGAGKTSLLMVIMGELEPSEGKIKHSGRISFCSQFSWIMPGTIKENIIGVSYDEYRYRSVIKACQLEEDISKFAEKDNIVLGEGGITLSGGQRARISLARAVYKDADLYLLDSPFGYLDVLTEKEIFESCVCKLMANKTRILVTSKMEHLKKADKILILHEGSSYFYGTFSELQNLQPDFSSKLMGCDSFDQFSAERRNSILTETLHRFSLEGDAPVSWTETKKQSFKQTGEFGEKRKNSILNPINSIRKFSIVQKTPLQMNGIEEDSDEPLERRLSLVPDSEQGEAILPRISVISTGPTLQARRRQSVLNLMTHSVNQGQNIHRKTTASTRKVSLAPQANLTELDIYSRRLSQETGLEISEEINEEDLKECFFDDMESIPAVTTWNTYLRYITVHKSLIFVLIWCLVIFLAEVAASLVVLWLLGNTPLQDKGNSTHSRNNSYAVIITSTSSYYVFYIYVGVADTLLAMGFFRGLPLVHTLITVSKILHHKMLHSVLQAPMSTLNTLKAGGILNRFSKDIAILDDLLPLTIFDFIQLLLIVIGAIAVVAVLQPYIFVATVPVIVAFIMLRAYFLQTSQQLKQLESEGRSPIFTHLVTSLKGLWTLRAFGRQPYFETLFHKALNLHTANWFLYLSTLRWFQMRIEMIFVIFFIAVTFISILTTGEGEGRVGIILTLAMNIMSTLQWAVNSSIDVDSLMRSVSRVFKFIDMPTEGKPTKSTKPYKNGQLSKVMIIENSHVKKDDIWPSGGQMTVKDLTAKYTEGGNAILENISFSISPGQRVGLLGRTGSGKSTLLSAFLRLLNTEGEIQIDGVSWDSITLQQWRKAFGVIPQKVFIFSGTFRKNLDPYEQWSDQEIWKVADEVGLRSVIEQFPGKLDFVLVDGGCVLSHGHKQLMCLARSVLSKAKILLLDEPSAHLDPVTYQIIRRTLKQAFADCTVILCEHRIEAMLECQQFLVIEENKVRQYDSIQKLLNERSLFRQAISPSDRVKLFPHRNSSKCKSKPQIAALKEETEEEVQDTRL

HBE2 Activity at 3 μM (%): +++ (+++ is >60+)
SMILES: Cc1cccc(C)c1-c1cc2nc(n1)NS(=O)(=O)c1cccc(c1)C(=O)N(Cc1ccnc(N(C)C3CCC3)n1)[C@H](CC(C)(C)C)CO2 [Compound 1616]

HBE2 Activity at 3 μM (%): +++ (+++ is >60+)
SMILES: CC[C@@]1(COC)CCCN1c1cccc(CN2C(=O)c3cccc(c3)S(=O)(=O)Nc3nc(cc(-c4c(C)cccc4C)n3)OC[C@H]2CC(C)(C)C)n1 [Compound 1617]

HBE2 Activity at 3 μM (%): +++ (+++ is >60+)
SMILES: COC[C@H]1C[C@@H](N(C)c2cncc(CN3C(=O)c4cccc(c4)S(=O)(=O)Nc4nc(cc(-c5c(C)cccc5C)n4)OC[C@H]3CC(C)(C)C)n2)C1 [Compound 1619]

HBE2 Activity at 3 μM (%): +++ (+++ is >60+)
SMILES: COC[C@H]1C[C@H](N(C)c2cncc(CN3C(=O)c4cccc(c4)S(=O)(=O)Nc4nc(cc(-c5c(C)cccc5C)n4)OC[C@H]3CC(C)(C)C)n2)C1 [Compound 1620]

HBE2 Activity at 3 μM (%): +++ (+++ is >60+)
SMILES: Cc1cccc(C)c1-c1cc2nc(n1)NS(=O)(=O)c1cccc(c1)C(=O)N(Cc1cncc(N3CCC34COC4)n1)[C@H](CC(C)(C)C)CO2 [Compound 1624]

HBE2 Activity at 3 μM (%): +++ (+++ is >60+)
SMILES: Cc1cccc(C)c1-c1cc2nc(n1)NS(=O)(=O)c1cccc(c1)C(=O)N(Cc1cncc(N3CCCC34CCC4)n1)[C@H](CC(C)(C)C)CO2 [Compound 1625]

HBE2 Activity at 3 μM (%): +++ (+++ is >60+)
SMILES: Cc1cccc(C)c1-c1cc2nc(n1)NS(=O)(=O)c1cccc(c1)C(=O)N(Cc1cncc(N3CCCCC34CCC4)n1)[C@H](CC(C)(C)C)CO2 [Compound 1626]

HBE2 Activity at 3 μM (%): +++ (+++ is >60+)
SMILES: Cc1cccc(C)c1-c1cc2nc(n1)NS(=O)(=O)c1cccc(c1)C(=O)N(Cc1cncc(N3CCOCC34CCC4)n1)[C@H](CC(C)(C)C)CO2 [Compound 1627]

HBE2 Activity at 3 μM (%): ++ (++ is 30-60%)
SMILES: Cc1cccc(C)c1-c1cc2nc(n1)NS(=O)(=O)c1cccc(c1)C(=O)N(Cc1cncc(N(C)CC(=O)N(C)C)n1)[C@H](CC(C)(C)C)CO2 [Compound 1630]

HBE2 Activity at 3 μM (%): +++ (+++ is >60+)
SMILES: CO[C@H]1C[C@H](CN(C)c2cncc(CN3C(=O)c4cccc(c4)S(=O)(=O)Nc4nc(cc(-c5c(C)cccc5C)n4)OC[C@H]3CC(C)(C)C)n2)C1 [Compound 1631]

HBE2 Activity at 3 μM (%): +++ (+++ is >60+)
SMILES: CO[C@H](C)CN(C)c1cncc(CN2C(=O)c3cccc(c3)S(=O)(=O)Nc3nc(cc(-c4c(C)cccc4C)n3)OC[C@H]2CC(C)(C)C)n1 [Compound 1633]

HBE2 Activity at 3 μM (%): +++ (+++ is >60+)
SMILES: COCC1(N(C)c2cncc(CN3C(=O)c4cccc(c4)S(=O)(=O)Nc4nc(cc(-c5c(C)cccc5C)n4)OC[C@H]3CC(C)(C)C)n2)CCC1 [Compound 1635]

HBE2 Activity at 3 μM (%): +++ (+++ is >60+)
SMILES: Cc1cccc(C)c1-c1cc2nc(n1)NS(=O)(=O)c1cccc(c1)C(=O)N(Cc1cncc(N(C)c3cnn(C)c3)n1)[C@H](CC(C)(C)C)CO2 [Compound 1636]

HBE2 Activity at 3 μM (%): +++ (+++ is >60+)
SMILES: Cc1cccc(C)c1-c1cc2nc(n1)NS(=O)(=O)c1cccc(c1)C(=O)N(Cc1cncc(N3CCC4C3CC(=O)N4C)n1)[C@H](CC(C)(C)C)CO2 (some centres unmarked) [Compound 1639]

HBE2 Activity at 3 μM (%): +++ (+++ is >60+)
SMILES: CCCOc1cnc(CN2C(=O)c3cccc(c3)S(=O)(=O)Nc3nc(cc(-c4c(C)cccc4C)n3)OC[C@H]2CC2(C)CCC2)nc1 [Compound 1641]

HBE2 Activity at 3 μM (%): +++ (+++ is >60+)
SMILES: Cc1cccc(C)c1-c1cc2nc(n1)NS(=O)(=O)c1cccc(c1)C(=O)N(Cc1cncc(N3CCC4OCCC43)n1)[C@H](CC(C)(C)C)CO2 (some centres unmarked) [Compound 1642]

HBE2 Activity at 3 μM (%): +++ (+++ is >60+)
SMILES: Cc1cccc(C)c1-c1cc2nc(n1)NS(=O)(=O)c1cccc(c1)C(=O)N(Cc1cncc(N3CCC4OCCC43)n1)[C@H](CC(C)(C)C)CO2 (some centres unmarked) [Compound 1643]

More lines, now with the values behind:

SMILES: Cc1cccc(C)c1-c1cc2nc(n1)NS(=O)(=O)c1cccc(c1)C(=O)N(Cc1ncc(N3CC(C)(C)C3)cn1)[C@H](CC1CCC1)CO2 [Compound 1594]
EC50: < 1000 nM
Emax: > 60%

SMILES: Cc1cccc(C)c1-c1cc2nc(n1)NS(=O)(=O)c1cccc(c1)C(=O)N(Cc1ncc(N3CC(C)(C)C3)cn1)[C@H](CCC1CC1)CO2 [Compound 1595]
HBE2 Activity at 3 μM (%): +++ (+++ is >60+)

SMILES: CCOc1cnc(CN2C(=O)c3cccc(c3)S(=O)(=O)Nc3nc(cc(-c4c(C)cccc4C)n3)OC[C@H]2CCC2CC2)nc1 [Compound 1596]
HBE2 Activity at 3 μM (%): +++ (+++ is >60+)

SMILES: Cc1cccc(C)c1-c1cc2nc(n1)NS(=O)(=O)c1cccc(c1)C(=O)N(Cc1ncc(OC(C)C)cn1)[C@H](CCC1CC1)CO2 [Compound 1597]
HBE2 Activity at 3 μM (%): +++ (+++ is >60+)

SMILES: CCC(C)Oc1cnc(CN2C(=O)c3cccc(c3)S(=O)(=O)Nc3nc(cc(-c4c(C)cccc4C)n3)OC[C@H]2CCC2CC2)nc1 (some centres unmarked) [Compound 1598]
HBE2 Activity at 3 μM (%): +++ (+++ is >60+)

SMILES: CCOc1cnc(CN2C(=O)c3cccc(c3)S(=O)(=O)Nc3nc(cc(-c4c(C)cccc4C)n3)OC[C@H]2CCC(C)C)nc1 [Compound 1599]
HBE2 Activity at 3 μM (%): +++ (+++ is >60+)

SMILES: CCCOc1cnc(CN2C(=O)c3cccc(c3)S(=O)(=O)Nc3nc(cc(-c4c(C)cccc4C)n3)OC[C@H]2CCC2CC2)nc1 [Compound 1600]
HBE2 Activity at 3 μM (%): +++ (+++ is >60+)

SMILES: Cc1cccc(C)c1-c1cc2nc(n1)NS(=O)(=O)c1cccc(c1)C(=O)N(Cc1cncc(OC3CCC3)n1)[C@H](CC(C)(C)C)CO2 [Compound 1601]
HBE2 Activity at 3 μM (%): +++ (+++ is >60+)

SMILES: Cc1cccc(C)c1-c1cc2nc(n1)NS(=O)(=O)c1cccc(c1)C(=O)N(Cc1cncc(N(C)C3CC(F)(F)C3)n1)[C@H](CC(C)(C)C)CO2 [Compound 1602]
EC50: < 1000 nM
Emax: > 60%

SMILES: Cc1cccc(C)c1-c1cc2nc(n1)NS(=O)(=O)c1cccc(c1)C(=O)N(Cc1cncc(NC3CCC3)n1)[C@H](CC(C)(C)C)CO2 [Compound 1603]
EC50: < 1000 nM
Emax: > 60%

SMILES: Cc1cccc(C)c1-c1cc2nc(n1)NS(=O)(=O)c1cccc(c1)C(=O)N(Cc1cncc(N3CCC34CCC4)n1)[C@H](CC(C)(C)C)CO2 [Compound 1604]
EC50: < 1000 nM
Emax: > 60%

SMILES: Cc1cccc(C)c1-c1cc2nc(n1)NS(=O)(=O)c1cccc(c1)C(=O)N(Cc1cncc(N3CCCC3c3ccnn3C)n1)[C@H](CC(C)(C)C)CO2 (some centres unmarked) [Compound 1605]
HBE2 Activity at 3 μM (%): +++ (+++ is >60+)

SMILES: Cc1cccc(C)c1-c1cc2nc(n1)NS(=O)(=O)c1cccc(c1)C(=O)N(Cc1cncc(N3CCCC3c3ccnn3C)n1)[C@H](CC(C)(C)C)CO2 (some centres unmarked) [Compound 1606]
HBE2 Activity at 3 μM (%): +++ (+++ is >60+)

SMILES: CO[C@H]1C[C@@H](N(C)c2cncc(CN3C(=O)c4cccc(c4)S(=O)(=O)Nc4nc(cc(-c5c(C)cccc5C)n4)OC[C@H]3CC(C)(C)C)n2)C1 [Compound 1611]
HBE2 Activity at 3 μM (%): +++ (+++ is >60+)

SMILES: Cc1cccc(C)c1-c1cc2nc(n1)NS(=O)(=O)c1cccc(c1)C(=O)N(Cc1cnc(N(C)C3CCC3)cn1)[C@H](CC(C)(C)C)CO2 [Compound 1612]
HBE2 Activity at 3 μM (%): +++ (+++ is >60+)

SMILES: Cc1cccc(C)c1-c1cc2nc(n1)NS(=O)(=O)c1cccc(c1)C(=O)N(Cc1cncc(N(C)CC3(C)COC3)n1)[C@H](CC(C)(C)C)CO2 [Compound 1613]
HBE2 Activity at 3 μM (%): +++ (+++ is >60+)

SMILES: Cc1cccc(C)c1-c1cc2nc(n1)NS(=O)(=O)c1cccc(c1)C(=O)N(Cc1cncc(N(C)CC3CCC3)n1)[C@H](CC(C)(C)C)CO2 [Compound 1614]
HBE2 Activity at 3 μM (%): +++ (+++ is >60+)
